Drawing on patent US10005792B2, “Aminoindane-, aminotetrahydronaphthalene- and aminobenzocyclobutane-derived PRMT5-inhibitors” (CTXT PTY LTD, priority 2014, dated 2018), this text covers IC50 for 24 compounds.

Structures can show the parent of a compound that is named as a salt.

Experiment [1] has as its target T1, Full-length PRMT5 enzyme co-expressed with MEP50 (Homo sapiens (Human), UniProt O14744). Description: PRMT5 Biochemical Assay. Particulars: 200 nM histone H4 derived peptide substrate, 1 μM S-Adenosyl methionine, 4 hours at 37° C, Transcreener EPIGEN fluorescence polarisation. Here is the method: (§1) Compounds of the invention may be tested for in vitro activity in the following assay: A histone H4 derived peptide is used as substrate (amino acid sequence: […]NH2). Full-length PRMT5 enzyme (NCBI Reference sequence NP-006100.2) was co-expressed with Hiss-MEP50 in insect cells and purified via Nickel immobilized metal affinity and gel filtration chromatography (“the enzyme”).
(§2) The 6 μL assay reactions are run in Greiner brand black 384-well low volume plates. All reactions contained assay buffer (phosphate buffered saline, 0.01% (v/v) Tween-20, 0.01% (w/v) albumin from chicken egg white, 1 mM dithiothreitol, 200 nM peptide substrate, 1 μM S-Adenosyl methionine, and 15 ng/reaction enzyme, with the enzyme being omitted from negative control reactions. Compounds were added in a volume of 100 nL from dilution series prepared in DMSO, positive and negative control reactions receiving the same volume DMSO without compound. The plates were sealed with adhesive seals and incubated for 4 hours at 37° C. Reaction progress was measured using the Transcreener™ EPIGEN methyltransferase assay (BellBrook Labs, Madison, Wis.) as recommended by the manufacturer. To each reaction 2 μL detection mix were added, containing coupling enzymes, fluorescence polarisation tracer, and AMP antibody. Plates were incubated for 90 min before being read on a PerkinElmer EnVision™ plate reader in fluorescence polarisation mode.

The target in experiment [2] is T1, Full-length PRMT5 enzyme co-expressed with MEP50. Kind of experiment: Revised PRMT5 Biochemical Assay. The note with it: 1 μM histone H4 derived peptide substrate, 1 μM S-Adenosyl methionine, 4 hours at 37 degree Celsius, Transcreener EPIGEN fluorescence polarisation. The procedure: as §1
as §2, with “6 μL reactions are” for “6 μL assay reactions are”, “low volume assay plates. All” for “low volume plates. All”, “1 mM Dithiothreitol, 1 μM peptide substrate,” for “1 mM dithiothreitol, 200 nM peptide substrate,”, “hours at 37 degree Celsius. Reaction progress” for “hours at 37° C. Reaction progress”, “for 90 minutes before being” for “for 90 min before being”, “polarisation mode. IC50 values were obtained from the raw readings by calculating percent inhibition (% I) for each reaction relative to controls on the same plate (% I=(I−CN)/(CP−CN) where CN/CP are the averages of the negative/positive reactions, respectively), then fitting the % I data vs. compound concentration [I] to % I=([…]) where A is the lower asymptote, B is the upper asymptote, C is the IC50 value, and D is the slope.” for “polarisation mode.”

T1 sequence (O14744 whole entry): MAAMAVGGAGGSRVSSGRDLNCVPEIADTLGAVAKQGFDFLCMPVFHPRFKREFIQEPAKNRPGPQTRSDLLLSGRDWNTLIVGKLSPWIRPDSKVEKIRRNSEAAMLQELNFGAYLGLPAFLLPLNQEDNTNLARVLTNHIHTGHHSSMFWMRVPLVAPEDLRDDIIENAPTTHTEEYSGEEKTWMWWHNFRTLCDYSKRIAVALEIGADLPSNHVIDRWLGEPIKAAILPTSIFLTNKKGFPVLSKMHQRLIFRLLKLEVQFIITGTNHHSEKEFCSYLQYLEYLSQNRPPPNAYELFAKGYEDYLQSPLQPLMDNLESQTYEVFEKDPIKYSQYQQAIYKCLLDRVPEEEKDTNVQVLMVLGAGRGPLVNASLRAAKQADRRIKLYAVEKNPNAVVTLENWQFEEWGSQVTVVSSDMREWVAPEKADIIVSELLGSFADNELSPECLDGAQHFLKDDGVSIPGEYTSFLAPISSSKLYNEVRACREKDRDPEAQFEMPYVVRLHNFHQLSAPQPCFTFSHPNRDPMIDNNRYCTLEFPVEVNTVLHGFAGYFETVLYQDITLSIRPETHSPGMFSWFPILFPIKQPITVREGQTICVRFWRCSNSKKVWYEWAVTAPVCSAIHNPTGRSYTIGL
T1 sequence (Q9BQA1 whole entry partner): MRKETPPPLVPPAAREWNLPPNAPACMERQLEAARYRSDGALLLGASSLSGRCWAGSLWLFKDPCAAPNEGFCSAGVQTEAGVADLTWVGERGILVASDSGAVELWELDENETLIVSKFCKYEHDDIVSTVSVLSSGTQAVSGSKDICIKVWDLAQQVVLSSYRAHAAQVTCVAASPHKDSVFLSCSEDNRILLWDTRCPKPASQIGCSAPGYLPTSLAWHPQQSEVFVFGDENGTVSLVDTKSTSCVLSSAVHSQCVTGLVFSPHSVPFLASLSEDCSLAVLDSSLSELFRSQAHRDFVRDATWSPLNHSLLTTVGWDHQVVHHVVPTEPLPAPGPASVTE

In experiment [1], `O=C(NCC(O)CNC1Cc2ccccc2C1)c1ccc(Cl)cc1` (stereo not drawn) [Compound 1, 4-Chloro-N-(3-((2,3-dihydro-1H-inden-2-yl)amino)-2-hydroxypropyl)benzamide] displayed a half-inhibitory concentration (IC50) of 0.792 µM.
For `Cc1nc(-c2ccc(C(F)(F)F)cc2)sc1C(=O)NC[C@H](O)CNC1Cc2ccccc2C1` [Compound 3, (R)—N-(3-((2,3-Dihydro-1H-inden-2-yl)amino)-2-hydroxypropyl)-4-methyl-2-(4-(trifluoromethyl)phenyl)thiazole-5-carboxamide], 0.309 µM corresponded to half-maximal inhibition in experiment [1] (IC50).
In turn, `O=C(NC[C@H](O)CNC1Cc2ccccc2C1)c1cnn(-c2ccccc2)c1` [Compound 4, (R)-N-(3-((2,3-Dihydro-1H-inden-2-yl)amino)-2-hydroxypropyl)-1-phenyl-1H-pyrazole-4-carboxamide] showed an IC50 in experiment [1] of 3.79 µM.
As for `O=C(NC[C@@H](O)CNC1Cc2ccccc2C1)c1cccc2ncsc12` [Compound 113, (S)-N-(3-((2,3-dihydro-1H-inden-2-yl)amino)-2-hydroxypropyl) benzo[d]thiazole-7-carboxamide], the midpoint of inhibition in experiment [2], the IC50, lay at 4.15 µM.
For `CCOc1nc(C(=O)N2C3CCC2COC3)ccc1C(=O)NC[C@@H](O)CNC1Cc2ccccc2C1` [Compound 115, 6-(3-oxa-8-azabicyclo[3.2.1]octane-8-carbonyl)-N-((S)-3-((2,3-dihydro-1H-inden-2-yl)amino)-2-hydroxypropyl)-2-ethoxynicotinamide], half-maximal inhibition in experiment [2] (IC50) required 0.305 µM.
`CCOc1cc(-c2nnc(C)o2)ccc1C(=O)NC[C@@H](O)CNC1Cc2ccccc2C1` [Compound 116, (S)-N-(3-((2,3-dihydro-1H-inden-2-yl)amino)-2-hydroxypropyl)-2-ethoxy-4-(5-methyl-1,3,4-oxadiazol-2-yl)benzamide]: half-maximal inhibition in experiment [2] (IC50) required 0.276 µM.
As for `O=C(NC[C@@H](O)CNC1Cc2ccccc2C1)c1ccccc1C(F)(F)F` [Compound 118, (S)-N-(3-((2,3-dihydro-1H-inden-2-yl)amino)-2-hydroxypropyl)-2-(trifluoromethyl)benzamide], the IC50 in experiment [2] is 103 µM.
On the same count and under the same terms, the value for `O=C(NC[C@@H](O)CNC1Cc2ccccc2C1)c1cccc(OC(F)F)c1` [Compound 119, (S)-3-(difluoromethoxy)-N-(3-((2,3-dihydro-1H-inden-2-yl)amino)-2-hydroxypropyl)benzamide] was 5.08 µM.
In turn, `O=C(NC[C@@H](O)CNC1Cc2ccccc2C1)c1cccc2[nH]cnc12` [Compound 120, (S)-N-(3-((2,3-dihydro-1H-inden-2-yl)amino)-2-hydroxypropyl)-1H-benzo[d]imidazole-4-carboxamide] displayed a half-inhibitory concentration (IC50) in experiment [2] of 13.3 µM.
Regarding `CCOc1cc(C(=O)N2CCOCC2)c(C)cc1C(=O)NC[C@@H](O)CNC1Cc2ccccc2C1` [Compound 122, (S)-N-(3-((2,3-dihydro-1H-inden-2-yl)amino)-2-hydroxypropyl)-2-ethoxy-5-methyl-4-(morpholine-4-carbonyl)benzamide], the concentration for half-maximal inhibition (IC50) in experiment [2] came out at 0.166 µM.
Turning to `O=C(NC[C@@H](O)CNC1Cc2ccccc2C1)c1cccc2scnc12` [Compound 125, (S)-N-(3-((2,3-dihydro-1H-inden-2-yl)amino)-2-hydroxypropyl)benzo[d]thiazole-4-carboxamide], in experiment [2], the IC50 was found to be 6.72 µM.
Compound `CCOc1cc(C(=O)N2C3CCC2COC3)ncc1C(=O)NC[C@@H](O)CNC1Cc2ccccc2C1` [Compound 126, 6-(3-oxa-8-azabicyclo[3.2.1]octane-8-carbonyl)-N-((S)-3-((2,3-dihydro-1H-inden-2-yl(amino-2-hydroxypropyl)-4-ethoxynicotinamidedihydrochloride] gave a concentration for half-maximal inhibition (IC50) in experiment [2] of 0.226 µM.
For `O=C(NC[C@@H](O)CNC1Cc2ccccc2C1)c1cccc2[nH]ncc12` [Compound 128, (S)-N-(3-((2,3-dihydro-1H-inden-2-yl)amino)-2-hydroxypropyl)-1H-indazole-4-carboxamide], inhibition in experiment [2] was half-maximal at 15.4 µM (IC50).
Compound `CCOc1cc(CC(=O)N2C3CCC2COC3)ccc1C(=O)NC[C@@H](O)CNC1Cc2ccccc2C1` [Compound 129, 4-(2-(3-oxa-8-azabicyclo[3.2.1]octan-8-yl)-2-oxoethyl)-N-((S)-3-((2,3-dihydro-1H-inden-2-yl)amino)-2-hydroxypropyl)-2-ethoxybenzamide] returned an IC50 in experiment [2] of 0.629 µM.
The compound `CCOc1c(C(=O)NC[C@@H](O)CNC2Cc3ccccc3C2)ccc(C(=O)N2CCOCC2)c1C` [Compound 130, (S)-N-(3-((2,3-dihydro-1H-inden-2-yl)amino)-2-hydroxypropyl)-2-ethoxy-3-methyl-4-(morpholine-4-carbonyl)benzamide] had an IC50 in experiment [2] of 1.13 µM.
For `O=C(NC[C@@H](O)CNC1Cc2ccccc2C1)c1ccccc1Cl` [Compound 131, (S)-2-chloro-N-(3-((2,3-dihydro-1H-inden-2-yl)amino)-2-hydroxypropyl)benzamide], in experiment [2], 4.59 µM corresponded to half-maximal inhibition (IC50).
The compound `O=C(NC[C@@H](O)CNC1Cc2ccccc2C1)c1cccc2cn[nH]c12` [Compound 132, (S)-N-(3-((2,3-dihydro-1H-inden-2-yl)amino)-2-hydroxypropyl)-1H-indazole-7-carboxamide] came in with a concentration for half-maximal inhibition (IC50) in experiment [2] of 29.7 µM.
Turning to `COc1cc(C(=O)N2C3CCC2COC3)ccc1C(=O)NC[C@@H](O)CNC1Cc2ccccc2C1` [Compound 134, 4-(3-Oxa-8-azabicyclo[3.2.1]octane-8-carbonyl)-N-((S)-3-((2,3-dihydro-1H-inden-2-yl)amino)-2-hydroxypropyl)-2-methoxybenzamide hydrochloride], in experiment [2], half-maximal inhibition (IC50) required 0.238 µM.
Consider `O=C(NC[C@@H](O)CNC1Cc2ccccc2C1)c1ccc(C(=O)N2[C@@H]3CCC[C@H]2COC3)cc1` [Compound 136, 4-((1R,5S)-3-Oxa-9-azabicyclo[3.3.1]nonane-9-carbonyl)-N—((S)-3-((2,3-dihydro-1H-inden-2-yl)amino)-2-hydroxypropyl)benzamide], for which the IC50 in experiment [2] is 0.05 µM.
On to `O=C(NC[C@@H](O)CNC1Cc2ccccc2C1)c1ccccc1C(F)F` [Compound 137, (S)-2-(difluoromethyl)-N-(3-((2,3-dihydro-1H-inden-2-yl)amino)-2-hydroxypropyl)benzamide], for which, in experiment [2], the half-inhibitory concentration (IC50) is 47 µM.
As to `O=C(NC[C@@H](O)CNC1Cc2ccccc2C1)c1cccc(C(F)F)c1` [Compound 138, (S)-3-(difluoromethyl)-N-(3-((2,3-dihydro-1H-inden-2-yl)amino)-2-hydroxypropyl)benzamide], in experiment [2], half-maximal inhibition (IC50) required 16.9 µM.
`CC(=O)N1CC2CCC(C1)C2Nc1cccc(C(=O)NC[C@@H](O)CNC2Cc3ccccc3C2)c1` (stereo partly drawn) [Compound 139, 3-((3-Acetyl-3-azabicyclo[3.2.1]octan-8-yl)amino)-N—((S)-3-((2,3-dihydro-1H-inden-2-yl)amino)-2-hydroxypropyl)benzamide]: inhibition in experiment [2] was half-maximal at 0.771 µM (IC50).
Compound `CS(=O)(=O)Nc1cccc(C(=O)NC[C@@H](O)CNC2Cc3ccccc3C2)c1` [Compound 140, (S)—N-(3-((2,3-Dihydro-1H-inden-2-yl)amino)-2-hydroxypropyl)-3-(methylsulfonamido) benzamide] displayed an IC50 in experiment [2] of 4.68 µM.
For the compound `CCOc1cc(C(=O)N2C3CCC2COC3)c(F)cc1C(=O)NC[C@@H](O)CNC1Cc2ccccc2C1` [Compound 141, 4-(3-oxa-8-azabicyclo[3.2.1]octane-8-carbonyl)-N—((S)-3-((2,3-dihydro-1H-inden-2-yl)amino)-2-hydroxypropyl)-2-ethoxy-5-fluorobenzamide], the 50% inhibitory concentration (IC50) in experiment [2] turned out to be 0.695 µM.
